According to patent publication US20060246149A1, “Antimicrobial pigments” (priority 2003, published 2006):

What was measured:
Experiment in all cases: challenge test, germ count by Agar plates method
Assay type in all cases: cell-based
Conditions in all cases: 8% aqueous suspension
[1] = tested on: Escheria coli ATCC8739
Procedure: (§1) A standard procedure to measure the anti-microbial activity of substances was used (challenge tests). A suspension of test organisms (10^5 to 10^6 germs/ml) is inoculated into a recipient containing already the substance to be tested. Samples of the inoculated suspension are taken and the number of germs is measured thanks to the Agar plates method. Germ counts is performed at t=0, t=24 h after the inoculation, t=48 h after the inoculation, t=7 days after the inoculation, t=14 days after the inoculation.
(§2) Sterile water containing 8% w/w of treated and untreated carriers were each investigated.

[2] = tested on: Staphylococcus aureus ATCC 6538
Procedure: as §1, §2

[3] = tested on: Candida albicans ATCC 10231
Procedure: as §1, §2

[4] = tested on: Pseudomonas aeruginosa ATCC 9027
Procedure: as §1, §2

silver oxide [0.02% Ag2O]
0 germs/ml: Germs Number/ml after 24 h ([1]; 24 h) | Germs Number/ml after 48 h ([1]; 48 h) | Germs Number/ml after 7 d ([1]; 7 d) | Germs Number/ml after 14 d ([1]; 14 d) | Germs Number/ml after 24 h ([2]; 24 h) | Germs Number/ml after 48 h ([2]; 48 h) | Germs Number/ml after 14 d ([2]; 14 d) | Germs Number/ml after 48 h ([3]; 48 h) | Germs Number/ml after 7 d ([3]; 7 d) | Germs Number/ml after 14 d ([3]; 14 d) | Germs Number/ml after 24 h ([4]; 24 h) | Germs Number/ml after 48 h ([4]; 48 h) | Germs Number/ml after 7 d ([4]; 7 d) | Germs Number/ml after 14 d ([4]; 14 d)
